Literature values as cited in US20020054922A1, “Cosmetic composition and method” (priority 2000, published 2002).

Tested on: skin punch biopsy wound
Details: 25 micrograms estradiol per 24 hours by skin patch

## C[C@]12CC[C@@H]3c4ccc(O)cc4CC[C@H]3[C@@H]1CC[C@@H]2O [estrogen, estradiol]
Day 7
  fibronectin levels compared to placebo: increased fibronectin levels
Day 7, aged men and women
  wound size compared to placebo: decrease in wound size
Days 7 and 80
  collagen levels compared to placebo: increased collagen levels
